Active and inactive are the calls of the source. No cut-off for these calls is given here.

Experiment [1] concerns Mus musculus. Description: In vivo antitumor activity against the B16 melanoma cell line expressed as percent increase in life span; IA means inactive. Type of experiment: functional, organism-based.
Experiment [2] deals with Mus musculus. The experiment can be described thus: In vivo antitumor activity against the L1210 leukemia cell line expressed as percent increase in life span; IA means inactive. Type of experiment: functional, organism-based.
The test system of experiment [3] is Mus musculus. The experiment can be described thus: Percent increase in life span (ILS) was measured on P388 cells which were inoculated intraperitoneally in CD2F1 mice at 8 mg/kg. The note with it: P388, ip, route intraperitoneal. Type of experiment: functional.
Experiment [4] concerns Mus musculus. Description: In vivo antitumor activity against the M5076 reticulum cell sarcoma expressed as percent increase in life span at 4 mg/kg dose. Type of experiment: functional.
In experiment [5] the test system is Mus musculus. Description: In vivo antitumor activity against the B16 melanoma cell line expressed as percent increase in life span at 1 mg/kg dose. It counts as functional.
The test system of experiment [6] is Mus musculus. The experiment can be described thus: Percent increase in life span (ILS) was measured on P388 cells which were inoculated intraperitoneally in CD2F1 mice. It counts as functional.
The nature of experiment [7]: Ability to inhibit the dibutyryl-cAMP-induced change of an immature glioma cell to a mature, differentiated astrocyte by in vitro astrocytoma assay at 0.1 ug/mL dose (Experiment #2); value may range from 0 to 5. Type of experiment: functional, Mus musculus.
The nature of experiment [8]: Ability to inhibit the dibutyryl-cAMP-induced change of an immature glioma cell to a mature, differentiated astrocyte by in vitro astrocytoma assay at 0.1 ug/mL dose (Experiment #1); value may range from 0 to 5. It counts as functional, Mus musculus.
Experiment [9] is described as follows: Ability to inhibit the dibutyryl-cAMP-induced change of an immature glioma cell to a mature, differentiated astrocyte by in vitro astrocytoma assay at 10 ug/mL dose (Experiment #1); value may range from 91 to up. Type of experiment: functional, Mus musculus.
Experiment [10] can be described thus: Ability to inhibit the dibutyryl-cAMP-induced change of an immature glioma cell to a mature, differentiated astrocyte by in vitro astrocytoma assay at 1 ug/mL dose (Experiment #1); value may range from 51 to 70. Type of experiment: functional, Mus musculus.
Experiment [11] can be described thus: Ability to inhibit the dibutyryl-cAMP-induced change of an immature glioma cell to a mature, differentiated astrocyte by in vitro astrocytoma assay at 10 ug/mL dose (Experiment #2); value may range from 91 to up. It counts as functional, Mus musculus.
The nature of experiment [12]: Ability to inhibit the dibutyryl-cAMP-induced change of an immature glioma cell to a mature, differentiated astrocyte by in vitro astrocytoma assay at 1 ug/mL dose (Experiment #2); value may range from 51 to 70. It counts as functional, Mus musculus.
Experiment [13] deals with Mus musculus. The experiment can be described thus: The percent increase in life span on P388 cells which were inoculated intraperitoneally in CD2F1 mice at 50 mg/kg dose placed at ranking order 3. It counts as functional. The note with it: P388, ip, route intraperitoneal.
For experiment [14], the system named is Mus musculus. The experiment can be described thus: The percent increase in life span on P388 cells which were inoculated intraperitoneally in CD2F1 mice at 200 mg/kg dose placed at ranking order 2. It counts as functional. Particulars: P388, ip, route intraperitoneal.
Experiment [15] relates to Mus musculus. The experiment can be described thus: The percent increase in life span on P388 cells which were inoculated intraperitoneally in CD2F1 mice at 5 mg/kg dose placed at ranking order 1. Type of experiment: functional. The note with it: P388, ip, route intraperitoneal.
For experiment [16], the system named is Mus musculus. The experiment can be described thus: The percent increase in life span on P388 cells which were inoculated intraperitoneally in CD2F1 mice at 240 mg/kg dose placed at ranking order 1. Type of experiment: functional. The note with it: P388, ip, route intraperitoneal.
Experiment [17] has as its system Mus musculus. The experiment can be described thus: The percent increase in life span on P388 cells which were inoculated intraperitoneally in CD2F1 mice at 100 mg/kg dose placed at ranking order 2. It counts as functional. Particulars: P388, ip, route intraperitoneal.

Take `COc1cc([C@@H]2c3cc4c(cc3[C@H](O)[C@H]3COC(=O)[C@H]23)OCO4)cc(OC)c1OC` [PODOFILOX]: the ILS result in the experiment on Mus musculus [1] and in the experiment on Mus musculus [2] was “inactive” each time. Besides, the ILS at 8 mg/kg in the experiment on Mus musculus [3] came to 52%. Moreover, the ILS at 4 mg/kg in the experiment on Mus musculus [4] amounted to 46%. Also, the ILS at 1 mg/kg in the experiment with Mus musculus [5] is 28%.

In the case of `O=c1[nH]cc(F)c(=O)[nH]1` [FLUOROURACIL], the ILS in the experiment on Mus musculus [6] is reported as 73%.

As to `COc1cc2c(c(OC)c1OC)-c1ccc(OC)c(=O)cc1[C@@H](NC(C)=O)CC2` [COLCHICINE], the Astrocyte reversal in experiment [7] is 0%; in [8] it was 0%; in experiment [9] it was 91%; in [10], 51%; in experiment [11] it was 91%; in experiment [12], 51%.

`CCOc1ccc(C(C)c2cc3c(cc2OCC)OCO3)cc1` (centres undefined) displayed an ILS at 50 mg/kg in the experiment with Mus musculus [13] of 36%. Further, the ILS in the experiment with Mus musculus [6] is 71%. The compound further had an ILS at 200 mg/kg with Mus musculus [14] of 56%. Also, the increase in lifespan (ILS) at 5 mg/kg with Mus musculus [15] came to 71%.

As to `CCCOc1cc2c(cc1C(C)c1ccc(OCC)cc1)OCO2` (centres undefined), in the experiment on Mus musculus [6], the ILS came out at 41%. In the experiment on Mus musculus [16], the ILS at 240 mg/kg stood at 41%. In the experiment on Mus musculus [17], this compound had an ILS at 100 mg/kg of 26%.

Values taken from ChEMBL document CHEMBL1123608, “In vivo antitumor activity of 6-benzyl-1,3-benzodioxole derivatives against the P388, L1210, B16, and M5076 murine models” (1987).
